Measured values reported in patent publication US20260297060A1, “COMPOUNDS FOR THE DEGRADATION OF MUTANT BRAF” (C4 THERAPEUTICS, INC., priority 2023, published 2026).
Read-outs that look alike come from different tables or passages of the source.

Experiments:
A375-NRAS^Q61K cells = assay: CTGlo Cell Viability Assay, A375-NRAS^Q61K (A375.11) cells, 96 hours; type: cell-based, human; conditions: A375.11 (A375-NRAS^Q61K) cells; for Emax: lowest % viability achieved
Protocol: Compounds of this invention were tested for their effect on the viability of A375-NRAS^Q61K cells by quantification of ATP using the CellTiter-Glo® 2.0 Cell Viability Assay (Catalog No. G9243, Promega, Madison, WI, USA). This assay produces a luminescent signal in the presence of ATP, which is indicative of metabolically active cells, making the luminescence readout proportional to the number of viable cells.
A375-NRAS^Q61K cells (harboring BRAF homozygous V600E mutation and NRAS homozygous Q61K mutation) were purchased from ATCC (Catalog No. CRL-1619IG-2, Manassas, VA, USA). A375-NRAS^Q61K cells (also referred to here as A375.11) were maintained at 37° C. in an atmosphere of 5% CO2 in Dulbecco's modified Eagle Medium (DMEM) with high glucose (Catalog No. 11965092), supplemented with 10% fetal bovine serum (FBS; Catalog No. 10437036), and 10 mM HEPES (Catalog No. 15630130), all obtained from Thermofisher Scientific (Waltham, MA, USA). Cell culture flasks and 384-well microplates were acquired from VWR (Radnor, PA, USA).
Test compounds were prepared by dissolving neat compounds in DMSO (Catalog No. D8418, Sigma-Aldrich, Inc., St. Louis, MO, USA) to generate 10 mM stock solutions, which were serially diluted (half log) in DMSO to generate an 11-point dose series (1000× final treatment concentration) in a 384-Well Low Dead Volume Microplate (Catalog No. LP-0200, Labcyte, San Jose, CA, USA). Using the Echo 550 Acoustic Liquid Handler (Labcyte), 50 nL of serially diluted compound solutions were dispensed in duplicate to 384-well TC-treated microplates (Catalog No. 3571, Corning, Glendale, CA, USA) and 50 nL of DMSO was dispensed to control wells. A375-NRAS^Q61K cells were resuspended in growth media and added to 384-well plates containing a […] of compounds in duplicate (maximum 10 μM concentration for final treatment) at a density of 250 cells/well in 50 μl. Cells were also plated to a 384-well plate with no compound treatment, to which CellTiter-Glo® reagent was added and luminescence was read right after plating to act as a baseline signal at time of plating (To). Plates treated with compound were then spun briefly, and cells were incubated with compound at 37° C. for 96 hours.
After 96 hours compound treatment, CellTiter-Glo® reagent was added to the cells at 25 μl per well and luminescence was read out on the PHERAstar plate reader (BMG Labtech, Ortenberg, Germany). Cells treated with DMSO only (no test compound treatment) were used as the negative control (N). DMSO treated cells with no CellTiter-Glo® reagent added were used as the background or positive control (P). Viability was determined by subtracting out the average background signal (P) and normalized to the average untreated signal (N) set at 100%.
Data were analyzed with a 4-parameter logistic fit to generate sigmoidal dose-response curves. The half-maximal inhibition of cell growth (GI50) is the concentration at which the fitted curve crosses 50%. The Emax, or maximum effect of each compound, represents the lowest % viability achieved following compound treatment.

BRAF V600E = target: T1, BRAF V600E (Homo sapiens, UniProt P15056+Q96SW2, V600E); assay: BRAF V600E HiBiT Degradation Assay; type: cell-based
T1 construct: knock-in of the HiBiT tag to the endogenous BRAF V600E locus; host or cells: A375.10 (A375 clonal line, CRISPR HiBiT knock-in at the endogenous BRAF V600E locus)
T1 sequence (P15056 whole entry V600E): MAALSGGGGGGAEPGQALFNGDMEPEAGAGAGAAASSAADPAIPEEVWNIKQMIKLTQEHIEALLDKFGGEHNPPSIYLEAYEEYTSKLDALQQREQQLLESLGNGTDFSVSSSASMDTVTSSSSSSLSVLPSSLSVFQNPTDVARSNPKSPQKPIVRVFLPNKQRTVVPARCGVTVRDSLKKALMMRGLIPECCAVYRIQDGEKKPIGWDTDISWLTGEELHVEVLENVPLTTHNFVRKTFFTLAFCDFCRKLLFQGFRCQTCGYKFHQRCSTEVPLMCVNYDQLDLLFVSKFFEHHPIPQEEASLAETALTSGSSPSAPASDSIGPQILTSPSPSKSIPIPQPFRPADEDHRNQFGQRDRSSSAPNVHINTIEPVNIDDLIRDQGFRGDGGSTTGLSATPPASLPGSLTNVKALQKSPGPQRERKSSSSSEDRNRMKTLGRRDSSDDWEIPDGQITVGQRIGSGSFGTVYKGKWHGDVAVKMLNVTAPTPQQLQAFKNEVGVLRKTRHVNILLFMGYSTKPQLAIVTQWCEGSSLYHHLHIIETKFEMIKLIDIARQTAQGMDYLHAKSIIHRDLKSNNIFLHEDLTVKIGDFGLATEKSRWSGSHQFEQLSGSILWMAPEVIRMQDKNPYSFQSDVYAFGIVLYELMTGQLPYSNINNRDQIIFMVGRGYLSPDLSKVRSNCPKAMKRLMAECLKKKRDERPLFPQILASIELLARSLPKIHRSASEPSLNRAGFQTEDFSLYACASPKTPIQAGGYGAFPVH
T1 sequence (Q96SW2 whole entry): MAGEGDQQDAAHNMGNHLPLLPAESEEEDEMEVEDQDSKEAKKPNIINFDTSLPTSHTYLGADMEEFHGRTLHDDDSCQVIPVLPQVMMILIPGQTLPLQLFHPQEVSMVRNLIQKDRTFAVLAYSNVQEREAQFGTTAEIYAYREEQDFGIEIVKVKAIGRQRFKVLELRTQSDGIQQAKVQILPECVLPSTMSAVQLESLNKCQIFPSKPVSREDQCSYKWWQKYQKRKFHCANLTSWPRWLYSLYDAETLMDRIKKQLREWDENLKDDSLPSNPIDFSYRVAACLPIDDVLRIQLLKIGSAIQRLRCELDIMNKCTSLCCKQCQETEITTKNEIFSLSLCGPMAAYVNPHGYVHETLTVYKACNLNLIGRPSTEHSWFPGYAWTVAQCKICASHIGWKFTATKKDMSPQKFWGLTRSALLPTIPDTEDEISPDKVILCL
T1 sequence (Q16531 whole entry partner): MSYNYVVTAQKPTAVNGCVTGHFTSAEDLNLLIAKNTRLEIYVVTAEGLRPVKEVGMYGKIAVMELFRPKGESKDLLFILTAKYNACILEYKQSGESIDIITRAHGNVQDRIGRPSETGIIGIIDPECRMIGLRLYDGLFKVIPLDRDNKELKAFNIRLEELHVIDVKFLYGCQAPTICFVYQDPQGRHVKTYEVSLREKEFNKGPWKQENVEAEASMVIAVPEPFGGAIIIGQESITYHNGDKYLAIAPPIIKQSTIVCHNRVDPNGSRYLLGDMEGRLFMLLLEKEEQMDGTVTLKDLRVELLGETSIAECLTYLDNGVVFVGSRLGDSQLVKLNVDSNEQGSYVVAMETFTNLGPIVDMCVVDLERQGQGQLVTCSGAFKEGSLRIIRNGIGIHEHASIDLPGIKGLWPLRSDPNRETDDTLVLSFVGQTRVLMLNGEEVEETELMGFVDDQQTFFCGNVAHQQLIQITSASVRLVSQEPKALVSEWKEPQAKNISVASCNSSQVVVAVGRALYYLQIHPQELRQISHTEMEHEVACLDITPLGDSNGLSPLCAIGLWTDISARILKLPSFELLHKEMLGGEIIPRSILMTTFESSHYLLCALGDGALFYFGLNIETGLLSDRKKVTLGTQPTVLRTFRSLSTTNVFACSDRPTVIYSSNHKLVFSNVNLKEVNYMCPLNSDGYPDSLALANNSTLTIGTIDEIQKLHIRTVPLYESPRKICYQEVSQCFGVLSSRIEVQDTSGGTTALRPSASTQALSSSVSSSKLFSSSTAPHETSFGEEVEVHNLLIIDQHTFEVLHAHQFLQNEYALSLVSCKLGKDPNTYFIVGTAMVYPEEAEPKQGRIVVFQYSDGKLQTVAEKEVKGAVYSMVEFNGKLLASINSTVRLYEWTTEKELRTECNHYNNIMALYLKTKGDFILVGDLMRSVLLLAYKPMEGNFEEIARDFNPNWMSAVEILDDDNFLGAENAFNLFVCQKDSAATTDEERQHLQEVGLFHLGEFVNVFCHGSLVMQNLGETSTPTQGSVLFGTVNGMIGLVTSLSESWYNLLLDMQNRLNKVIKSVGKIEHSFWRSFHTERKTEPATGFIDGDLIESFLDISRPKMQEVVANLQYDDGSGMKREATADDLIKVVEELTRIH
Protocol: Compounds of this invention were tested for degradation of mutant BRAF V600E using the HiBiT assay, a luminescence-based assay for quantification of cellular protein levels using the Nano-Glo® HiBiT Lytic Detection System (Catalog No. N3050, Promega, Madison, WI USA). This assay utilizes the HiBiT tag on a protein of interest, which creates a luminescent signal in the presence of a complementing peptide and its substrate, the quantification of which is proportional to the amount of HiBiT-tagged protein in the cell.
The cell line A375, which is homozygous for the BRAF V600E mutation, was purchased from ATCC (Catalog No. CRL-1619, Manassas, VA, USA). A375 cells were engineered to express HiBiT tagged BRAF V600E by CRISPR knock-in of the HiBiT tag to the endogenous BRAF V600E locus, followed by selection of a clonal population containing the appropriate knock-in (referred to here as cell line A375.10). A375.10 cells were maintained at 37° C. in an atmosphere of 5% CO2 in Dulbecco's modified Eagle Medium (DMEM) with high glucose (Catalog No. 11965092), supplemented with 10% fetal bovine serum (FBS; Catalog No. 10437036), and 10 mM HEPES (Catalog No. 15630130), all obtained from Thermofisher Scientific (Waltham, MA, USA). Cell culture flasks and 384-well microplates were acquired from VWR (Radnor, PA, USA).
Test compounds were prepared by dissolving neat compounds in DMSO (Catalog No. D8418, Sigma-Aldrich, Inc., St. Louis, MO, USA) to generate 10 mM stock solutions, which were serially diluted (half log) in DMSO to generate an 11-point dose series (1000× final treatment concentration) in a 384-Well Low Dead Volume Microplate (Catalog No. LP-0200, Labcyte, San Jose, CA, USA). Using the Echo 550 Acoustic Liquid Handler (Labcyte), 30 nL of serially diluted compound solutions were dispensed in duplicate to 384-well TC-treated microplates (Catalog No. 3571, Corning, Glendale, CA, USA) and 30 nL of DMSO was dispensed to control wells. A375.10 cells resuspended in growth media without phenol red (Catalog No. 21063-029, Thermofisher Scientific) were then added to 384-well plates containing the 11-point dose series of compounds in duplicate (maximum 10 μM concentration for final treatment) at a density of 12,000 cells/well in 30 μl. Plates were then spun briefly, and cells were incubated with compound at 37° C. for 2 hours, 6 hours, or 24 hours.
Following the appropriate treatment time, Nano-Glo® HiBiT Lytic Assay reagents were added to the cells per the manufacturer's instructions by adding 30 μl of reagent per well, and the luminescence signal was acquired by plate reader. Cells treated with DMSO only (no test compound treatment) were used as the negative control (N). Media only (no cells added) with Nano-Glo reagent addition was used as the background or positive control (P). The percent response of compound treated samples were calculated by subtracting out the background signal (P) and normalizing to the DMSO control (N) as follows.
% Response=100×(Treated Signal−Average (P))/(Average (N)−Average (P)).
Data were analyzed with a 4-parameter logistic fit to generate sigmoidal dose-response curves. The DC50 is the concentration of compound at which 50% of the cellular BRAF V600E has been degraded. The Emax, or maximum effect of each compound, represents the amount of residual protein remaining in the cell following compound treatment. The IP, or inflection point of the dose-response curve, is the concentration of compound at which 50% of the observed degradation response is achieved.
The experiment was conducted at least once for each compound. If the experiment was conducted multiple times, the data shown in the table is the average of the two or more experiments.

[1] = A375.10 cells, BRAF V600E, 2 hours, residual protein remaining, read-out: HiBiT-Degradation A375.10 BRAF 2 hours Emax
[2] = read-out: HiBiT-Degradation A375.10 BRAF 2 hours DC50, A375.10 cells, BRAF V600E, 2 hours
[3] = read-out: HiBiT-Degradation A375.10 BRAF 2 hours IP, A375.10 cells, BRAF V600E, 2 hours, inflection point
[4] = A375.10 cells, BRAF V600E, 2 hours, inflection point, read-out: HiBiT-Degradation A375.10 BRAF 2 hours IP
[5] = A375.10 cells, BRAF V600E, 2 hours, read-out: HiBiT-Degradation A375.10 BRAF 2 hours DC50
[6] = A375.10 cells, HiBiT, BRAF V600E, 24 hours, read-out: HiBiT-Degradation A375.10 BRAF 24 hours DC50
[7] = A375.10 cells, HiBiT, BRAF V600E, 24 hours, read-out: HiBiT-Degradation A375.10 BRAF 24 hours Emax
[8] = A375.10 cells, HiBiT, BRAF V600E, 24 hours, read-out: HiBiT-Degradation A375.10 BRAF 24 hours IP

Row | Structure (SMILES) | GI50 (A375-NRAS^Q61K cells; Homo sapiens, 96 h) | Emax (A375-NRAS^Q61K cells; Homo sapiens, 96 h) | Emax (BRAF V600E; [1]) | DC50 (BRAF V600E; [2]) | DC50 (BRAF V600E; [3]) | DC50 (BRAF V600E; [4]) | DC50 (BRAF V600E; [5]) | DC50 (BRAF V600E; [6]) | Emax (BRAF V600E; [7]) | DC50 (BRAF V600E; [8]) | further results
1 | CN(CCO)S(=O)(=O)Nc1ccc(F)c(Oc2ccc3ncc(C4CC5(CCN(C6CC7(C6)CN(c6cc8c(cc6F)c(N6CCC(=O)NC6=O)nn8C)C7)CC5)C4)nc3c2)c1C#N (stereo not shown) [Compound 187, 7-[2-cyano-6-fluoro-3-[[2-hydroxyethyl(methyl)sulfamoyl]amino]phenoxy]-2-[7-[2-[3-(2,4-dioxohexahydropyrimidin-1-yl)-5-fluoro-1-methyl-indazol-6-yl]-2-azaspiro[3.3]heptan-6-yl]-7-azaspiro[3.5]nonan-2-yl]quinoxaline] | > 10000 nM | 50 to 90% | 50 to 90% | 1000 to 10000 nM | < 1000 nM | – | – | – | – | – | –
2 | CCN(C)S(=O)(=O)Nc1ccc(F)c(Oc2ccc3ncc(OCC4(O)CCN(C5CCC(c6cc7c(cc6F)c(N6CCC(=O)NC6=O)nn7C)CC5)CC4)nc3c2)c1C#N (single isomer, unassigned) [Compound 195, 7-[2-cyano-3-[[ethyl(methyl)sulfamoyl]amino]-6-fluoro-phenoxy]-2-[[1-[4-[3-(2,4-dioxohexahydropyrimidin-1-yl)-5-fluoro-1-methyl-indazol-6-yl]cyclohexyl]-4-hydroxy-4-piperidyl]methoxy]quinoxaline] | – | < 50% | 50 to 90% | – | – | < 1000 nM | > 10000 nM | – | – | – | GI50 (A375-NRAS^Q61K cells): > 10000 nM
3 | CCN(C)S(=O)(=O)Nc1ccc(F)c(Oc2ccc3ncn([C@H]4COC5(CCN(C6C7COCC6CC(c6ccc(NC8CCC(=O)NC8=O)cc6F)C7)CC5)C4)c(=O)c3c2)c1C#N (stereo partly drawn) [Compound 194, (3R)-3-[6-[2-cyano-3-[[ethyl(methyl)sulfamoyl]amino]-6-fluoro-phenoxy]-4-oxo-quinazolin-3-yl]-8-[7-[4-[(2,6-dioxo-3-piperidyl)amino]-2-fluoro-phenyl]-3-oxabicyclo[3.3.1]nonan-9-yl]-1-oxa-8-azaspiro[4.5]decane] | – | – | – | – | – | < 1000 nM | > 10000 nM | – | – | – | GI50 (A375-NRAS^Q61K cells; Homo sapiens): > 10000 nM; Emax (A375-NRAS^Q61K cells; Homo sapiens): 50 to 90%; Emax (BRAF V600E; read-out: HiBiT-Degradation A375.10 BRAF 2 hours Emax): 50 to 90%
4 | Cn1nc(N2CCC(=O)NC2=O)c2cc(F)c(N3CC4(CC(N5CCC6(CC5)C[C@@H](n5cnc7ccc(Oc8c(F)ccc(NS(=O)(=O)C9CC9)c8C#N)cc7c5=O)CO6)C4)C3)cc21 [Compound 234, N-[2-cyano-3-[3-[(3R)-8-[2-[3-(2,4-dioxohexahydropyrimidin-1-yl)-5-fluoro-1-methyl-indazol-6-yl]-2-azaspiro[3.3]heptan-6-yl]-1-oxa-8-azaspiro[4.5]decan-3-yl]-4-oxo-quinazolin-6-yl]oxy-4-fluoro-phenyl]cyclopropanesulfonamide] | < 1000 nM | 50 to 90% | < 50% | – | – | < 1000 nM | < 1000 nM | < 1000 nM | < 50% | < 1000 nM | –
5 | CCN(C)S(=O)(=O)Nc1ccc(F)c(Oc2ccc3ncn([C@H]4COC5(CCN(C6CC7(C6)CN(c6cc8c(cc6F)c(N6CCC(=O)NC6=O)nn8C)C7)CC5)C4)c(=O)c3c2)c1F [Compound 186, (3R)-8-[2-[3-(2,4-dioxohexahydropyrimidin-1-yl)-5-fluoro-1-methyl-indazol-6-yl]-2-azaspiro[3.3]heptan-6-yl]-3-[6-[3-[[ethyl(methyl)sulfamoyl]amino]-2,6-difluoro-phenoxy]-4-oxo-quinazolin-3-yl]-1-oxa-8-azaspiro[4.5]decane] | 1000 to 10000 nM | > 90% | 50 to 90% | < 1000 nM | < 1000 nM | – | – | – | – | – | –
6 | CCN(C)S(=O)(=O)Nc1ccc(F)c(Nc2ccc3ncn([C@H]4COC5(CCN(C6CCC(c7ccc(NC8CCC(=O)NC8=O)cc7F)CC6)CC5)C4)c(=O)c3c2F)c1C#N (single isomer, unassigned) [Compound 98] | – | – | – | – | – | – | – | < 1000 nM | < 50% | < 1000 nM | DC50 (BRAF V600E; A375.10 cells, BRAF V600E, 6 hours, inflection point, read-out: HiBiT-Degradation A375.10 BRAF 6 hours IP): < 1000 nM; DC50 (BRAF V600E; A375.10 cells, BRAF V600E, 6 hours, read-out: HiBiT-Degradation A375.10 BRAF 6 hours DC50): < 1000 nM; Emax (BRAF V600E; A375.10 cells, BRAF V600E, 6 hours, residual protein remaining, read-out: HiBiT-Degradation A375.10 BRAF 6 hours Emax): < 50%
